# Measured values reported in publication PMC6359543, “Efficacy of Azatyrosine-Phenylbutyric Hydroxamides, a Histone Deacetylase Inhibitor, on Chemotherapy-Induced Gastrointestinal Mucositis” (International Journal of Molecular Sciences, 2019).
# Read-outs that look alike come from different tables or passages of the source.
# Tests used:
# [1] = tested on: Salmonella typhimurium TA100; assay type: cell-based
# [2] = tested on: Chinese Hamster Ovary cells (CHO-K1); assay: Chromosome aberration assay; assay type: cell-based; conditions: for Number of cells with structural aberrations (%) B: chromosome break / Number of cells with structural aberrations (%) e: exchange / Number of cells with structural aberrations (%) G: chromosome gap / Number of cells with structural aberrations (%) b: chromatid break / Aberrant cell (%) With gap / Aberrant cell (%) Without gap / Number of cells with structural aberrations (%) D: dicentric / Number of cells with structural aberrations (%) g: chromatid gap: Chinese hamster
# Protocol: Chinese hamster ovary epithelial cells (CHO-K1, American Type Culture Collection, Manassas, VA, USA) were cultured in 6-cm dishes at a density of 2 × 10^5 cells/mL for chromosomal abnormality analysis. […] Colemid (0.1 μg/mL) was administered 3 h before trypsinization, followed by treatment with 0.9% sodium citrate at 37 °C and Carnoy’s solution (methanol:acetic acid, 3:1). The cells were stained with 3% Giemsa solution in 0.07 M phosphate buffer (pH 6.8) on glass slides. […] The data were expressed as the total mean number of chromosomal aberrations per treatment ± standard deviation (SD) from three independent experiments.
# acetyl-histone H3 = assay: Western blot of acetyl-histone H3 in IEC-6 cells; assay type: cell-based, Rat; conditions: AzP 5, 10 and 20 μM, 24 h
# Protocol: Figure 3 In vitro histone deacetylase (HDAC) activity. […] Cell lysates were used for acetyl-histone H3 protein expression by Western blot. Data are expressed as means ± SD from 3 independent experiments. *** p < 0.001 as compared with the resting and ** p < 0.01 as compared with the resting (B).
# IEC-6 cells were incubated in different AzP concentrations with/without LPS stimulation for 24 h. The homogenate from cells or tissues was then centrifuged at 14,000× g for 10 min at 4 °C and the supernatant was collected. Protein separation was performed using 10% reducing SDS-PAGE, electrotransferred onto polyvinylidene difluoride (PVDF), and immunoblotted with antibodies against inflammatory proteins as well as β-actin as control. Densitometry was performed using BioLight software V2000.01 (Uhldingen-Mühlhofen, Germany). The optical density of specific protein was normalized to an internal control and expressed as a ratio to control.
# IEC-6 cells = assay: Cisplatin-reduced IEC-6 cell viability; assay type: cell-based, Rat; conditions: data not shown
# HDAC3 = target: T1, HDAC3 (Homo sapiens, UniProt O15379); assay: HDAC fluorometric activity assay, HDAC3; assay type: biochemical
# T1 construct: purchased Enzo Life Sciences, Farmingdale, NY, USA
# T1 sequence (O15379 whole entry, species assumed): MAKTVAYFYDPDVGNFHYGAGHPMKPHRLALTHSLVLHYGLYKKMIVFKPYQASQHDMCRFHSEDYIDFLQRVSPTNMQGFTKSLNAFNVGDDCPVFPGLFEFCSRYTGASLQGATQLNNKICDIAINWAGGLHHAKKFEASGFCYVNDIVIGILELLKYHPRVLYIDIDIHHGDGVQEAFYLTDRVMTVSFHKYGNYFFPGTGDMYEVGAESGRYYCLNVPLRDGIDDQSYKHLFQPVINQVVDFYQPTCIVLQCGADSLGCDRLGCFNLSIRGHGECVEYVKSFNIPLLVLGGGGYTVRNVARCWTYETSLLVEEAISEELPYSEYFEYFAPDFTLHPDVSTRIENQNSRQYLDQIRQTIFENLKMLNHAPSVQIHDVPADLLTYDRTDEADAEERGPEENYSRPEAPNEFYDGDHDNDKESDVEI
# T1 sequence (O75376 395-489 partner limits assumed, species assumed): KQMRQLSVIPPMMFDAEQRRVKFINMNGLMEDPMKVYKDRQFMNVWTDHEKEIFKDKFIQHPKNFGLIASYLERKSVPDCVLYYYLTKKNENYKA
# Protocol: Pan HDAC enzyme (all the known class I HDACs-HDAC1, HDAC2, HDAC3, HDAC8 and class II HDACs 4-7, 9 and 10), HDAC subtype 1, 3 and 4 activity were determined by using the HDAC fluorometric cellular activity assay (Enzo Life Sciences, Farmingdale, NY, USA) according to the manufacturer’s protocol. […] Percent activity for each of the test compounds is calculated as follows:
# Activity = {(Sc − B)/(S° − B)} × 100. […] IC50 was then calculated and represented as mean ± SD.
# [3] = tested on: Salmonella typhimurium TA1537; assay: Salmonella/microsome reversion assay (Ames test), TA1537; assay type: cell-based
# [4] = tested on: Salmonella typhimurium TA102
# Protocol: Five strains of Salmonella typhimurium, TA98, TA102, TA100, TA1537, and TA1535, were obtained from Moltox (Boone, NC, USA). Mutagenicity was evaluated by the incorporation method in the presence or absence of S9 metabolic activation. A volume of 100 µL of each test bacterial culture (10^9 cells/mL), 2 mL soft agar (0.6% agar, 0.5% NaCl, 5 mM histidine, and […], pH 7.4, 40–50 °C), 0.5 mL S9 mixture (if necessary), and AzP were mixed well in a test tube. […] The revertant colonies were counted, and a positive mutagenic response was identified when (i) the number of revertants was at least double the spontaneous yield; (ii) a statistical significance (p ≤ 0.05) was found; and (iii) a reproducible positive dose response was present.
smiles,measurement,setting,value
"CC(C)(C)OC(=O)NC(Cc1ccc(OCc2ccccc2)cn1)C(=O)Nc1ccc(CCCC(=O)NO)cc1 (stereo not shown) [AzP, Azatyrosine-phenylbutyric hydroxamides]","Ames test result, TA100 (-S9)",[1]; -S9,Negative
same,Revertant colonies per plate (+S9) TA100,[1]; AzP 0.00245 mg/plate,106.7±2.2
same,Revertant colonies per plate (-S9) TA100,[1]; AzP 0.00245 mg/plate,81±5
same,Revertant colonies per plate (+S9) TA100,[1]; AzP 0.0049 mg/plate,106±4.4
same,Revertant colonies per plate (-S9) TA100,[1]; AzP 0.0049 mg/plate,78.7±2.7
same,Revertant colonies per plate (+S9) TA100,[1]; AzP 0.0098 mg/plate,107.3±1.3
same,Revertant colonies per plate (-S9) TA100,[1]; AzP 0.0098 mg/plate,81.7±2.7
same,Revertant colonies per plate (+S9) TA100,[1]; AzP 0.0195 mg/plate,110.3±3.8
same,Revertant colonies per plate (-S9) TA100,[1]; AzP 0.0195 mg/plate,89.7±9
same,Revertant colonies per plate (+S9) TA100,[1]; AzP 0.0391 mg/plate,150.3±19.7
same,Revertant colonies per plate (-S9) TA100,[1]; AzP 0.0391 mg/plate,90.8±9.6
same,Revertant colonies per plate (+S9) TA100,[1]; AzP 0.0781 mg/plate,153±3.1
same,Revertant colonies per plate (-S9) TA100,[1]; AzP 0.0781 mg/plate,88.7±1.2
same,Revertant colonies per plate (+S9) TA100,[1]; AzP 0.156 mg/plate,104±8
same,Revertant colonies per plate (+S9) TA100,[1]; AzP 0.3125 mg/plate,92.2±5.2
same,"Ames test result, TA100 (|S9)",[1]; second S9 group,Negative
same,Chromosome aberration assay result,[2],Negative
same,Number of cells with structural aberrations (%) B: chromosome break,"[2]; 3 h, 5 µg/mL",0.00±0.00%
same,Number of cells with structural aberrations (%) e: exchange,"[2]; 3 h, 5 µg/mL",0.00±0.00%
same,Number of cells with structural aberrations (%) B: chromosome break,"[2]; 3 h, 10 µg/mL",0.00±0.00%
same,Number of cells with structural aberrations (%) G: chromosome gap,"[2]; 3 h, 10 µg/mL",0.00±0.00%
same,Number of cells with structural aberrations (%) b: chromatid break,"[2]; 3 h, 10 µg/mL",0.00±0.00%
same,Number of cells with structural aberrations (%) e: exchange,"[2]; 3 h, 10 µg/mL",0.00±0.00%
same,Number of cells with structural aberrations (%) B: chromosome break,"[2]; 3 h, 20 µg/mL",0.00±0.00%
same,Number of cells with structural aberrations (%) G: chromosome gap,"[2]; 3 h, 20 µg/mL",0.00±0.00%
same,Aberrant cell (%) With gap,"[2]; 24 h, 5 µg/mL",4.33±0.58%
same,Aberrant cell (%) Without gap,"[2]; 24 h, 5 µg/mL",1.67±1.53%
same,Number of cells with structural aberrations (%) B: chromosome break,"[2]; 24 h, 5 µg/mL",0.00±0.00%
same,Number of cells with structural aberrations (%) D: dicentric,"[2]; 24 h, 5 µg/mL",0.33±0.58%
same,Number of cells with structural aberrations (%) G: chromosome gap,"[2]; 24 h, 5 µg/mL",0.33±0.58%
same,Number of cells with structural aberrations (%) b: chromatid break,"[2]; 24 h, 5 µg/mL",1.00±1.00%
same,Number of cells with structural aberrations (%) e: exchange,"[2]; 24 h, 5 µg/mL",0.33±0.58%
same,Number of cells with structural aberrations (%) g: chromatid gap,"[2]; 24 h, 5 µg/mL",2.33±1.53%
same,Aberrant cell (%) With gap,"[2]; 24 h, 10 µg/mL",4.00±1.00%
same,Aberrant cell (%) Without gap,"[2]; 24 h, 10 µg/mL",2.67±1.53%
same,Number of cells with structural aberrations (%) B: chromosome break,"[2]; 24 h, 10 µg/mL",0.00±0.00%
same,Number of cells with structural aberrations (%) D: dicentric,"[2]; 24 h, 10 µg/mL",0.67±0.58%
same,Number of cells with structural aberrations (%) G: chromosome gap,"[2]; 24 h, 10 µg/mL",0.67±0.58%
same,Number of cells with structural aberrations (%) b: chromatid break,"[2]; 24 h, 10 µg/mL",1.33±0.58%
same,Number of cells with structural aberrations (%) e: exchange,"[2]; 24 h, 10 µg/mL",0.67±0.58%
same,Number of cells with structural aberrations (%) g: chromatid gap,"[2]; 24 h, 10 µg/mL",1.33±0.58%
same,Aberrant cell (%) With gap,"[2]; 24 h, 20 µg/mL",4.33±0.58%
same,Aberrant cell (%) Without gap,"[2]; 24 h, 20 µg/mL",0.67±0.58%
same,Number of cells with structural aberrations (%) B: chromosome break,"[2]; 24 h, 20 µg/mL",0.33±0.58%
same,Number of cells with structural aberrations (%) D: dicentric,"[2]; 24 h, 20 µg/mL",0.00±0.00%
same,Number of cells with structural aberrations (%) G: chromosome gap,"[2]; 24 h, 20 µg/mL",0.33±0.58%
same,Number of cells with structural aberrations (%) b: chromatid break,"[2]; 24 h, 20 µg/mL",0.00±0.00%
same,Number of cells with structural aberrations (%) e: exchange,"[2]; 24 h, 20 µg/mL",0.00±0.00%
same,Number of cells with structural aberrations (%) g: chromatid gap,"[2]; 24 h, 20 µg/mL",3.33±0.58%
same,"histone acetylation (acetyl-histone H3, Western blot)",acetyl-histone H3,elevated histone acetylation
same,influence on cisplatin-reduced cell viability,IEC-6 cells,did not influence
same,IC50,HDAC3,660 ± 99 nM
same,"Ames test result, TA1537 (-S9)",[3]; -S9,Negative
same,Revertant colonies per plate (+S9) TA1537,[3]; AzP 0.00245 mg/plate,32.3±3
same,Revertant colonies per plate (-S9) TA1537,[3]; AzP 0.00245 mg/plate,15±0.5
same,Revertant colonies per plate (+S9) TA1537,[3]; AzP 0.0049 mg/plate,35.3±2.2
same,Revertant colonies per plate (-S9) TA1537,[3]; AzP 0.0049 mg/plate,10.7±0.9
same,Revertant colonies per plate (+S9) TA1537,[3]; AzP 0.0098 mg/plate,29.3±2.2
same,Revertant colonies per plate (-S9) TA1537,[3]; AzP 0.0098 mg/plate,10±0.6
same,Revertant colonies per plate (+S9) TA1537,[3]; AzP 0.0195 mg/plate,27.3±2.7
same,Revertant colonies per plate (-S9) TA1537,[3]; AzP 0.0195 mg/plate,10±2
same,Revertant colonies per plate (+S9) TA1537,[3]; AzP 0.0391 mg/plate,22.1±2.5
same,Revertant colonies per plate (-S9) TA1537,[3]; AzP 0.0391 mg/plate,11.8±6
same,Revertant colonies per plate (+S9) TA1537,[3]; AzP 0.0781 mg/plate,16±2.5
same,Revertant colonies per plate (-S9) TA1537,[3]; AzP 0.0781 mg/plate,12±4.9
same,Revertant colonies per plate (+S9) TA1537,[3]; AzP 0.156 mg/plate,18±1
same,Revertant colonies per plate (-S9) TA1537,[3]; AzP 0.156 mg/plate,14.7±2
same,"Ames test result, TA1537 (|S9)",[3]; second S9 group,Negative
same,"Ames test result, TA102 (-S9)",[4]; -S9,Negative
same,Revertant colonies per plate (+S9) TA102,[4]; AzP 0.00245 mg/plate,219.7±6.9
same,Revertant colonies per plate (-S9) TA102,[4]; AzP 0.00245 mg/plate,141±4.4
same,Revertant colonies per plate (+S9) TA102,[4]; AzP 0.0049 mg/plate,225.7±4.5
same,Revertant colonies per plate (-S9) TA102,[4]; AzP 0.0049 mg/plate,142.3±4.7
same,Revertant colonies per plate (+S9) TA102,[4]; AzP 0.0098 mg/plate,215±4
same,Revertant colonies per plate (-S9) TA102,[4]; AzP 0.0098 mg/plate,140.3±7.9
same,Revertant colonies per plate (+S9) TA102,[4]; AzP 0.0195 mg/plate,230.7±2
same,Revertant colonies per plate (-S9) TA102,[4]; AzP 0.0195 mg/plate,139.5±5.6
same,Revertant colonies per plate (+S9) TA102,[4]; AzP 0.0391 mg/plate,212.2±9.2
same,Revertant colonies per plate (-S9) TA102,[4]; AzP 0.0391 mg/plate,138.3±8.5
same,Revertant colonies per plate (+S9) TA102,[4]; AzP 0.0781 mg/plate,233.3±9.8
same,Revertant colonies per plate (-S9) TA102,[4]; AzP 0.0781 mg/plate,152.7±11.3
same,Revertant colonies per plate (+S9) TA102,[4]; AzP 0.156 mg/plate,217.3±4.8
same,Revertant colonies per plate (+S9) TA102,[4]; AzP 0.3125 mg/plate,230.1±8.4
same,Revertant colonies per plate (+S9) TA102,[4]; AzP 0.625 mg/plate,217.4±7.3
same,"Ames test result, TA102 (|S9)",[4]; second S9 group,Negative
